Each structure is given as a SMILES string.

The data set in a line: method code SF-RC, from DOI: 10.1021/jf60225a019, PMID: 546944.
The compound `CCOc1ccc(C(c2ccc(C)cc2)C(C)C)cc1` (stereo unspecified) gave a lipophilicity (logP) of 3.55.

`COc1ccc(C(c2ccc(OC)cc2)C(C)(C)C)cc1` gave a logP of 3.57.

Turning to `CCOc1ccc(C(c2ccc(OCC)cc2)C(C)(Cl)Cl)cc1`, the logP amounted to 3.64.

In turn, `CCOc1ccc(C(c2ccc(OCC)cc2)C(C)C)cc1` displayed a log partition coefficient (logP) of 3.61.

For the compound `CCOc1ccc(C(c2ccc(OCC)cc2)C(C)Cl)cc1` (stereo unspecified), the lipophilicity (logP) stood at 3.58.

The compound `CCOc1ccc(C(c2ccc(C)cc2)C(C)[N+](=O)[O-])cc1` (stereo unspecified) yielded a log partition coefficient (logP) of 3.46.

As to `CCOc1ccc(C(c2ccc(OCC)cc2)C(C)(C)C)cc1`, the log partition coefficient (logP) was 3.16.

`CCOc1ccc(C(c2ccc(OCC)cc2)C(Cl)Cl)cc1` displayed a log partition coefficient (logP) of 3.65.

Compound `CCOc1ccc(C(c2ccc(OCC)cc2)C(C)(C)Cl)cc1` registered a logP of 3.25.

Compound `CCOc1ccc(C(c2ccc(OCC)cc2)C(C)[N+](=O)[O-])cc1` (stereo unspecified) returned a logP of 3.45.

On to `CCOc1ccc(C(c2ccc(C)cc2)C(C)Cl)cc1` (stereo unspecified), for which the logP came to 3.19.

The values above are taken from the SangsterLogP compilation.
